Test results taken from US20170042193A1, “Pet Food Compositions Having Antimicrobial Activity” (priority 2010, published 2017).
Read-outs that look alike come from different tables or passages of the source. Blank lines part the entries; values can stand above or below the molecule they belong to.

Key:
Format in all cases: cell-based
[1] = system: Salmonella (S. aarhus, S. muenster E1 and S. worthington); set-up: key to Salmonella growth or inhibition (MIC test): −: negative sign means inhibition; +: positive sign denotes growth
Method: The minimum inhibitory concentration (MIC) of an antimicrobial ingredient is defined as the maximum dilution of the product that will still inhibit the growth of Salmonella. Serial dilutions (0-3%, except for oregano 0-0.3%) were made of the AMI in bacterial growth media and poured in test tubes. The test organisms (S. aarhus, S. muenster E1 and S. worthington) were then added to the dilutions of the AMI ingredients to a final concentration of 10^6 or 10^3 cfu/g, incubated overnight at 30° C., and scored for growth by turbidity or plate counts.
Minimum Inhibitory Concentration was conducted for 10^3 and 10^6 cfu/g Salmonella. Results reported as negative sign means inhibition, while positive sign denotes growth.

[2] = system: Salmonella (S. aarhus, S. muenster E1 & S. worthington); conditions: for Zone of Inhibition-Diameter, Mean / Zone of Inhibition-Diameter, REP I Plate 1 / Zone of Inhibition-Diameter, REP I Plate 2 / Zone of Inhibition-Diameter, REP II Plate 1 / Zone of Inhibition-Diameter, REP II Plate 2 / Zone of Inhibition-Diameter, REP III Plate 1 / Zone of Inhibition-Diameter, REP III Plate 2: kibble coated
Method: The kibble diffusion test has similar principles as the disk diffusion method. […] […] Efficacy of the AMI was validated by measuring how closely the Salmonella cultures grew with respect to the saturated kibbles.
Commercial canine and feline adult pet food compositions in the form of kibbles were coated with potential AMIs. […] After incubation overnight at 30° C., plates were analyzed for presence of clear zones around the kibbles.

Salmonella = experiment: Scale up challenge testing of canine kibble with Propionic Acid at simulated process steps
Description: Canine adult pet food compositions with Propionic Acid were produced. Samples were taken to simulate different steps of the process. […] Moisture target was about 20%. 2) The dryer temperature was reduced and belt speed increased. […] Moisture target was about 15%. […] Moisture target was about 8%.
Kibble with intermediate moisture (15% and 20%) was cooled to prevent condensation in the bag and not encourage mold growth.
Extruder, dryer, uncoated base and finished product samples (10 kg each) were inoculated with Salmonella 10^6 cfu/g.
Uncoated base samples were coated with topicals (palatants and fat) after inoculation (Table 10).
Samples were split and incubated in a 30, 50 or 70° C. incubator.
Samples at 70° C. were plated after 0, 15, 30 and 60 minutes.
Samples at 50° C. were plated after 0, 30, 60 and 240 minutes.
Samples at 30° C. were plated after 0, 1, 2, 3, 8 and 15 days.

[3] = 10^3 cfu/g Salmonella, antimicrobial level 0.03%
[4] = 10^3 cfu/g Salmonella, antimicrobial level 0.15%
[5] = 10^3 cfu/g Salmonella, antimicrobial level 0.3%
[6] = 10^3 cfu/g Salmonella, antimicrobial level 0.9%
[7] = 10^3 cfu/g Salmonella, antimicrobial level 1.5%
[8] = 10^3 cfu/g Salmonella, antimicrobial level 2.1%
[9] = 10^3 cfu/g Salmonella, antimicrobial level 3%
[10] = 10^3 cfu/g Salmonella, antimicrobial level […]
[11] = 10^6 cfu/g Salmonella, antimicrobial level 0.03%
[12] = 10^6 cfu/g Salmonella, antimicrobial level 0.15%
[13] = 10^6 cfu/g Salmonella, antimicrobial level 0.3%
[14] = 10^6 cfu/g Salmonella, antimicrobial level 0.9%
[15] = 10^6 cfu/g Salmonella, antimicrobial level 1.5%
[16] = 10^6 cfu/g Salmonella, antimicrobial level 2.1%
[17] = 10^6 cfu/g Salmonella, antimicrobial level 3%
[18] = 10^6 cfu/g Salmonella, antimicrobial level […]

MIC needed to inhibit Salmonella ([1]; 10^3 and 10^6 cfu/g Salmonella): 0.15% | Salmonella growth or inhibition (MIC test) [1, 3]: − | Salmonella growth or inhibition (MIC test) [1, 4]: − | Salmonella growth or inhibition (MIC test) [1, 5]: − | Salmonella growth or inhibition (MIC test) [1, 6]: − | Salmonella growth or inhibition (MIC test) [1, 7]: − | Salmonella growth or inhibition (MIC test) [1, 8]: − | Salmonella growth or inhibition (MIC test) [1, 9]: − | Salmonella growth or inhibition (MIC test) [1, 10]: − | Salmonella growth or inhibition (MIC test) [1, 11]: − | Salmonella growth or inhibition (MIC test) [1, 12]: − | Salmonella growth or inhibition (MIC test) [1, 13]: − | Salmonella growth or inhibition (MIC test) [1, 14]: − | Salmonella growth or inhibition (MIC test) [1, 15]: − | Salmonella growth or inhibition (MIC test) [1, 16]: − | Salmonella growth or inhibition (MIC test) [1, 17]: − | Salmonella growth or inhibition (MIC test) [1, 18]: −
Compound: CCCCCCCCCCCC(=O)N[C@@H](CCCN=C(N)N)C(=O)OCC [Lauric Arginate]

Compound: CCC(=O)O [Propionic Acid]
Salmonella growth or inhibition (MIC test) [1, 3]: + | Salmonella growth or inhibition (MIC test) [1, 4]: + | Salmonella growth or inhibition (MIC test) [1, 5]: + | Salmonella growth or inhibition (MIC test) [1, 6]: − | Salmonella growth or inhibition (MIC test) [1, 7]: − | Salmonella growth or inhibition (MIC test) [1, 8]: − | Salmonella growth or inhibition (MIC test) [1, 9]: − | Salmonella growth or inhibition (MIC test) [1, 10]: − | Salmonella growth or inhibition (MIC test) [1, 11]: + | Salmonella growth or inhibition (MIC test) [1, 12]: + | Salmonella growth or inhibition (MIC test) [1, 13]: − | Salmonella growth or inhibition (MIC test) [1, 14]: − | Salmonella growth or inhibition (MIC test) [1, 15]: − | Salmonella growth or inhibition (MIC test) [1, 16]: − | Salmonella growth or inhibition (MIC test) [1, 17]: − | Salmonella growth or inhibition (MIC test) [1, 18]: − | inhibition of Salmonella, clear zone around the kibbles ([2]; coated kibbles, overnight at 30° C.): inhibited Salmonella | Zone of Inhibition-Diameter, Mean ([2]; 0.65%): 9 mm | Zone of Inhibition-Diameter, REP I Plate 1 ([2]; 0.65%): 8 mm | Zone of Inhibition-Diameter, REP I Plate 2 ([2]; 0.65%): 10 mm | Zone of Inhibition-Diameter, REP II Plate 1 ([2]; 0.65%): 5 mm | Zone of Inhibition-Diameter, REP II Plate 2 ([2]; 0.65%): 10 mm | Zone of Inhibition-Diameter, REP III Plate 1 ([2]; 0.65%): 13 mm | Zone of Inhibition-Diameter, REP III Plate 2 ([2]; 0.65%): 5 mm | Zone of Inhibition-Diameter, Mean ([2]; 2%): 40 mm | Zone of Inhibition-Diameter, REP I Plate 1 ([2]; 2%): 47 mm | Zone of Inhibition-Diameter, REP I Plate 2 ([2]; 2%): 49 mm | Zone of Inhibition-Diameter, REP II Plate 1 ([2]; 2%): 47 mm | Zone of Inhibition-Diameter, REP II Plate 2 ([2]; 2%): 43 mm | Zone of Inhibition-Diameter, REP III Plate 1 ([2]; 2%): 30 mm | Zone of Inhibition-Diameter, REP III Plate 2 ([2]; 2%): 25 mm | Zone of Inhibition-Diameter, Mean ([2]; 3%): 31 mm | Zone of Inhibition-Diameter, REP I Plate 1 ([2]; 3%): 30 mm | Zone of Inhibition-Diameter, REP I Plate 2 ([2]; 3%): 28 mm | Zone of Inhibition-Diameter, REP II Plate 1 ([2]; 3%): 31 mm | Zone of Inhibition-Diameter, REP II Plate 2 ([2]; 3%): 34 mm | Zone of Inhibition-Diameter, REP III Plate 1 ([2]; 3%): 33 mm | Zone of Inhibition-Diameter, REP III Plate 2 ([2]; 3%): 30 mm | Zone of Inhibition-Diameter, Mean ([2]; 3% (in CWG)): 31 mm | Zone of Inhibition-Diameter, REP I Plate 1 ([2]; 3% (in CWG)): 34 mm | Zone of Inhibition-Diameter, REP I Plate 2 ([2]; 3% (in CWG)): 34 mm | Zone of Inhibition-Diameter, REP II Plate 1 ([2]; 3% (in CWG)): 28 mm | Zone of Inhibition-Diameter, REP II Plate 2 ([2]; 3% (in CWG)): 31 mm | Zone of Inhibition-Diameter, REP III Plate 1 ([2]; 3% (in CWG)): 28 mm | Zone of Inhibition-Diameter, REP III Plate 2 ([2]; 3% (in CWG)): 31 mm | Zone of Inhibition-Diameter, Mean ([2]; […]): 21 mm | Zone of Inhibition-Diameter, REP I Plate 1 ([2]; […]): 25 mm | Zone of Inhibition-Diameter, REP I Plate 2 ([2]; […]): 18 mm | Zone of Inhibition-Diameter, REP II Plate 1 ([2]; […]): 25 mm | Zone of Inhibition-Diameter, REP II Plate 2 ([2]; […]): 25 mm | Zone of Inhibition-Diameter, REP III Plate 1 ([2]; […]): 13 mm | Zone of Inhibition-Diameter, REP III Plate 2 ([2]; […]): 20 mm | reduction of Salmonella compared with untreated control (Salmonella; 1, 2 and 3% topically applied): reduced Salmonella by two log cycles more than an untreated control | reduction of Salmonella compared with untreated control (Salmonella; 2 and 3% topical/preconditioner): reduced Salmonella by two log cycles more than an untreated control | reduction of Salmonella compared with untreated control (Salmonella; 3% in preconditioner): reduced Salmonella by two log cycles more than an untreated control | efficacy against Salmonella at points of processing (Salmonella; concentrations of 1%, 2%, and 3%): efficacious against Salmonella at all points of processing | effect on Salmonella (Salmonella; finished product contaminated after enrober, 2% and 3% added topical/preconditioner): positive effect | effect on Salmonella (Salmonella; finished product contaminated after enrober, topical application of 1%, 2% and 3%): positive effect | effect on Salmonella (Salmonella; product coated and inoculated (finished product contaminated after enrober), 3% in the preconditioner): some immediate effect | reduction of Salmonella compared with control (Salmonella; product simulating entry to the airlift, evaporative cooling, dryer after surface cooling, 1%, 2%, and 3%): Reduction of two logs more than control
